This note sets out measurements from article PMC13185748, “Targeting noncanonical nuclear factor kappa B signalling in CYLD cutaneous syndrome by selective inhibition of IκB kinase alpha” (The British Journal of Dermatology, 2026).

pIC50: −log10 of the molar value.

In this test the target is T1, IκB kinase alpha (IKKα) (Homo sapiens, UniProt O15111).
T1 construct: gene CHUK
T1 sequence (O15111 1-745): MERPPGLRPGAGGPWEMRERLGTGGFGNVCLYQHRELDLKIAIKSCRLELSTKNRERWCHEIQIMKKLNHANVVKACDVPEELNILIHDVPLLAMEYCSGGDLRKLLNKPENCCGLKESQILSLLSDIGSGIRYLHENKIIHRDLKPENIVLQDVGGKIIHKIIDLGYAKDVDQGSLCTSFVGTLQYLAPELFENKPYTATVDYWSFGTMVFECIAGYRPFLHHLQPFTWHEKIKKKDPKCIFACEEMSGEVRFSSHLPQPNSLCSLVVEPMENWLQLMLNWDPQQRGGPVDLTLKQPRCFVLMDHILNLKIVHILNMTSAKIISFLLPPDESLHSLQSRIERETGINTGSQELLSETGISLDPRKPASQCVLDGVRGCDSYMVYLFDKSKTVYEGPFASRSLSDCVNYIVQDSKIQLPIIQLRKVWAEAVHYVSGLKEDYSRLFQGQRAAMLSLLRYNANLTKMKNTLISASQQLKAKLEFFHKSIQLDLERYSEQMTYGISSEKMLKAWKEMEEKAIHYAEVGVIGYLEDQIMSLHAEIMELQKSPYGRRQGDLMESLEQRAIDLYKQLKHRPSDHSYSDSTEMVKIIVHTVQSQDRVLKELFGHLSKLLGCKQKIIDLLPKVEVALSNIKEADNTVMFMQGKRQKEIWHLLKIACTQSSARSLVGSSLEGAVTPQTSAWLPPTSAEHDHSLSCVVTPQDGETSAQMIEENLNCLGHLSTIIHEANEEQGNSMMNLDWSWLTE
Description: target engagement in PC3m cells by pharmacodynamic markers (p100 phosphorylation; RelB nuclear translocation), data not shown. The format is cell-based.

As for SU1644, the pIC50 was 7.30.

One may read the pIC50 as the negative decadic logarithm of the IC50, by convention in mol/L. Read a high pIC50 as a low IC50.
